Values joined by “and” are separate entries in the source; they are usually repeats but may differ in a detail not shown here. Identical values can stand only once.
Assay: solvent given as SMILES
Settings: in C1CCCCC1

SMILES | emission maximum
CN(C)c1ccc(-c2cc(=O)c3ccccc3o2)cc1 | 382.35 nm
Cc1cc2ccccc2cc1C | 339.21 nm
CCc1c(C)c2n(c1C)[B-](F)(F)[N+]1=C(C=C3C=Cc4ccccc43)C=CC1=C2C | 596 nm

Same assay, conditions: in C1CCOC1

SMILES | emission maximum
c1cc2ccc1-c1ccc(cc1)-c1ccc(s1)-c1ccc(cc1)-c1ccc(cc1)-c1ccc(s1)-c1ccc(cc1)-c1ccc(cc1)-c1ccc-2s1 | 523 nm
COc1cc2c(cc1-c1ccc(F)cc1)Cc1c3c(c4c(c1-2)-c1cc(OC)c(-c2ccc(F)cc2)cc1C4)C(=O)N(CCC(C)C)C3=O | 468 nm
CCC(CC)COC1=CC2=C3c4cc(OCC(CC)CC)c(-c5ccccc5)n4[B-](F)(F)[n+]4nnn(c43)[B-](F)(F)[N+]2=C1c1ccccc1 | 725 nm
CCCCCCCCCCn1c(-c2cc(-c3nc4ccccc4n3CCCCCCCCCC)cc(-c3nc4ccccc4n3CCCCCCCCCC)c2)nc2ccccc21 | 360.5 nm
COc1ccc(C#Cc2nc3ccccc3nc2-c2cn(C)c3ccccc23)cc1 | 490 nm
CC(C)(C)c1ccc2c(c1)c1cc(C(C)(C)C)ccc1n2-c1ccccc1-c1nc(-c2ccccc2-n2c3ccc(C(C)(C)C)cc3c3cc(C(C)(C)C)ccc32)nc(-c2ccccc2P(=O)(c2ccccc2)c2ccccc2)n1 | 512.54 nm
CN(c1ccccc1)c1ccc(-c2ccc(-c3ccc(N(C)c4ccccc4)cc3)c3nc(-c4ccccc4)c(-c4ccccc4)nc23)cc1 | 638 nm
COc1ccc(-c2nc3c(c4c2-c2ccccc2CC4)-c2ccccc2CC3)cc1 | 420 nm

Same assay, conditions: in C1COCCO1

emission maximum | SMILES
732 nm | COc1ccc(/C=C/C2=CC(/C=C/c3ccc(OC)cc3)=[N+]3C2=C(c2ccc(-c4ccc5ccccc5n4)s2)c2c(/C=C/c4ccc(OC)cc4)cc(/C=C/c4ccc(OC)cc4)n2[B-]3(F)F)cc1
518 nm | O=C1OC(c2ccccc2)=C/C1=C\c1ccc([N+](=O)[O-])cc1

Same assay, conditions: in CC1CCCCC1

emission maximum | SMILES
492 nm | C(=C\c1c2ccccc2cc2ccccc12)/c1ccc2ccccc2n1

Same assay, conditions: in CC1CCCO1

emission maximum | SMILES
552 nm | O=c1cc2c(-c3c(O)c4cccc5ccc6oc(=O)cc3c6c54)c(O)c3cccc4ccc(o1)c2c43

Same assay, conditions: in CC#N

SMILES | emission maximum
COc1ccc(/C=C/C2=[O+][B-](F)(F)OC(/C=C/c3ccc(OC)cc3)=C2c2ccccc2)cc1 | 564 nm
C(=C\c1c2ccccc2cc2ccccc12)/c1ccc2ccccc2n1 | 510 nm
CCC(CC)COC1=CC2=C3c4cc(OCC(CC)CC)c(-c5ccccc5)n4[B-](F)(F)[n+]4nnn(c43)[B-](F)(F)[N+]2=C1c1ccccc1 | 721 nm
CN(C)c1ccc(-c2cc(=O)c3ccccc3o2)cc1 | 474 nm and 462.75 nm
COc1ccc(C#Cc2nc3ccccc3nc2-c2cn(C)c3ccccc23)cc1 | 518 nm
COc1cccc(/C=C/C(=O)c2c(O)cc(C)oc2=O)c1 | 500 nm
CC(C)(C)c1ccc2c(c1)c1cc(C(C)(C)C)ccc1n2-c1ccccc1-c1nc(-c2ccccc2-n2c3ccc(C(C)(C)C)cc3c3cc(C(C)(C)C)ccc32)nc(-c2ccccc2P(=O)(c2ccccc2)c2ccccc2)n1 | 546.04 nm
COc1cc2cc(-c3cc4cc(OC)c(OC)cc4oc3=O)oc2cc1OC | 493 nm
CN(c1ccccc1)c1ccc(-c2ccc(-c3ccc(N(C)c4ccccc4)cc3)c3nc(-c4ccccc4)c(-c4ccccc4)nc23)cc1 | 659 nm
CC1(C)CC(=O)c2cc(F)c(F)cc2N1 | 435 nm
Cc1ccc2c(c1)nc1c(=O)n(C)c(=O)nc-1n2C | 532 nm
COc1ccc(-c2nc3c(c4c2-c2ccccc2CC4)-c2ccccc2CC3)cc1 | 416 nm

Same assay, conditions: in CC(C)=O

SMILES | emission maximum
COc1ccc(/C=C/C2=[O+][B-](F)(F)OC(/C=C/c3ccc(OC)cc3)=C2c2ccccc2)cc1 | 549 nm
COc1ccc(C#Cc2nc3ccccc3nc2-c2cn(C)c3ccccc23)cc1 | 513 nm
CC(C)(C)c1ccc2c(c1)c1cc(C(C)(C)C)ccc1n2-c1ccccc1-c1nc(-c2ccccc2-n2c3ccc(C(C)(C)C)cc3c3cc(C(C)(C)C)ccc32)nc(-c2ccccc2P(=O)(c2ccccc2)c2ccccc2)n1 | 533.4 nm

Same assay, conditions: in CC(C)O

SMILES | emission maximum
COc1ccc(C#Cc2nc3ccccc3nc2-c2cn(C)c3ccccc23)cc1 | 519 nm

Same assay, conditions: in CCCCCC

SMILES | emission maximum
CN(c1ccccc1)c1ccc(-c2ccc(-c3ccc(N(C)c4ccccc4)cc3)c3nc(-c4ccccc4)c(-c4ccccc4)nc23)cc1 | 598 nm
COc1ccc(-c2nc3c(c4c2-c2ccccc2CC4)-c2ccccc2CC3)cc1 | 408 nm

Same assay, conditions: in CCO

SMILES | emission maximum
COc1ccc(C#Cc2nc3ccccc3nc2-c2cn(C)c3ccccc23)cc1 | 522 nm
CC1(C)CC(=O)c2cc(F)c(F)cc2N1 | 472 nm

Same assay, conditions: in CCOC(C)=O

SMILES | emission maximum
COc1ccc(/C=C/C2=[O+][B-](F)(F)OC(/C=C/c3ccc(OC)cc3)=C2c2ccccc2)cc1 | 534 nm
CN(C)c1ccc(-c2cc(=O)c3ccccc3o2)cc1 | 442 nm and 433.73 nm
COc1ccc(C#Cc2nc3ccccc3nc2-c2cn(C)c3ccccc23)cc1 | 491 nm
COc1cc2cc(-c3cc4cc(OC)c(OC)cc4oc3=O)oc2cc1OC | 478 nm
COc1ccc(-c2nc3c(c4c2-c2ccccc2CC4)-c2ccccc2CC3)cc1 | 425 nm

Same assay, conditions: in CCOCC

SMILES | emission maximum
COc1ccc(/C=C/C2=[O+][B-](F)(F)OC(/C=C/c3ccc(OC)cc3)=C2c2ccccc2)cc1 | 520 nm

Same assay, conditions: in CN(C)C=O

SMILES | emission maximum
CC(C)(C)c1ccc2c(c1)c1cc(C(C)(C)C)ccc1n2-c1ccccc1-c1nc(-c2ccccc2-n2c3ccc(C(C)(C)C)cc3c3cc(C(C)(C)C)ccc32)nc(-c2ccccc2P(=O)(c2ccccc2)c2ccccc2)n1 | 546.04 nm
CN(c1ccccc1)c1ccc(-c2ccc(-c3ccc(N(C)c4ccccc4)cc3)c3nc(-c4ccccc4)c(-c4ccccc4)nc23)cc1 | 661 nm

Same assay, conditions: in CO

emission maximum | SMILES
606.31 nm | c1cc2c(C3SCCCS3)c3ccc(=[N+]4CCCCC4)cc-3oc2cc1N1CCCCC1
390 nm | Oc1cccc(-c2nc(-c3ccccc3)c(-c3ccccc3)[nH]2)c1

From the Deep4Chem optical property database
